Reference: EP0628046B1, “TRIAZOLOPYRIMIDIN DERIVATIVES AS ANTIOTENSIN II RECEPTOR ANTAGONISTS” (LABORATOIRES UPSA, priority 1992, dated 1993)

Experiments:
[1] = system: récepteurs surrénaliens de l'angiotensine Il; test: Displacement of [125I]-SIAII radioligand from adrenal angiotensin II receptors (rat adrenal homogenate); format: binding; settings: 60 min at 25°C
Source text: L'affinité des produits des exemples pour les récepteurs de l'angiotensine Il est évaluée par technique de déplacement d'un radioligand spécifiquement fixé sur les récepteurs surrénaliens de l'angiotensine Il, chez le rat.
Une aliquote d'un homogénat de surrénales de rat incube en présence d'une concentration unique de [1251] - SIAII (Sar1, Tyr4, Ile8 - angiotensine il), antagoniste des récepteurs de l'angiotensine Il, et de deux concentrations d'agents compétiteurs (10^-5 M, 10^-7 M) durant 60 min à 25°C.
La réaction est achevée par ajout de tampon, puis rapide filtration à travers des filtres de papier de verre. La liaison non spécifique est déterminée en présence d'angiotensine II.
Les résultats sont exprimés, pour les concentrations testées, en pourcentage de déplacement du radioligand spécifiquement fixé sur les récepteurs surrénaliens de l'angiotensine il.

[2] = system: cellules musculaires lisses d'aortes de rat (CMLV); test: Inhibition of PDGF-induced cell proliferation (3H-thymidine incorporation) in rat aortic smooth muscle cells; format: cell-based; settings: 1E - 4M; 1 h pretreatment, 22 h PDGF stimulation
Method: B. Mesure de l'inhibition de la prolifération cellulaire induite par les facteurs de croissance (exemple : le Platelet-Derived Growth Factor ou PDGF) dans les cellules musculaires lisses d'aortes de rat
L'inhibition de la prolifération cellulaire induite par un facteur de croissance (exemple : le PDGF) est évaluée par mesure de l'incorporation de 3H-thymidine dans les cellules musculaires lisses d'aortes de rat (CMLV).
Les CMLV sont cultivées à 37°C, en 5 % C02, jusqu'à la sous-confluence puis placées pendant 24 heures en quiescence dans un milieu pauvre en sérum. Elles sont ensuite prétraitées pendant une heure par la molécule à tester (10^-4M) puis stimulées pendant 22 heures par un facteur de croissance (exemple : le PDGF). L'incorporation de 3H-thymidine est effectuée pendant les 4 dernières heures. Toutes ces étapes sont effectuées à 37°C, en 5 % CO2. La réaction est terminée par aspiration du milieu réactionnel, détachement des cellules, puis filtration des cellules lysées à travers des filtres en fibres de verre.
Les résultats sont exprimés en pourcentage d'inhibition de la stimulation d'incorporation de 3H-thymidine due à l'action du facteur de croissance.

## CCCc1c(Cc2ccc(-c3ccccc3-c3nnn[nH]3)cc2)c(O)nc2nc(N)nn12 [Exemple 75, 2-amino-5-hydroxy-7-propyl-6-[(2'-(1-H-tétrazol-5-yl)biphényl-4-yl)méthyl]-1,2,4-triazolo [1,5-a] pyrimidine]
[1]; competitor 1E-5M, 10 µM
  % de déplacement du ligand marqué: 61%
[1]; competitor 1E-7M, 0.1 µM
  % de déplacement du ligand marqué: 60%

## CCCc1c(Cc2ccc(-c3ccccc3-c3nnn[nH]3)cc2)c(N(CC)CC)nc2ncnn12 [Exemple 76, 5-N,N-diéthylamino-7-propyl-6-[(2'-(1-H-tétrazol-5-yl)biphényl-4-yl)méthyl]-1,2,4-triazolo [1,5-a] pyrimidine]
[1]; competitor 1E-5M, 10 µM
  % de déplacement du ligand marqué: 63%
[1]; competitor 1E-7M, 0.1 µM
  % de déplacement du ligand marqué: 28%

## CCCc1c(Cc2ccc(-c3ccccc3-c3nnn[nH]3)cc2)c(O)nc2ncnn12 [Exemple 63, 5-hydroxy-7-propyl-6-[(2'-(1-H-tétrazol-5-yl)biphényl-4-yl)méthyl]-1,2,4-triazolo [1,5-a] pyrimidine]
[1]; competitor 1E-5M, 10 µM
  % de déplacement du ligand marqué: 61%
[1]; competitor 1E-7M, 0.1 µM
  % de déplacement du ligand marqué: 52%

## CCCc1nc2nc(CC)nn2c(O)c1Cc1ccc(-c2ccccc2-c2nnn[nH]2)cc1 [Exemple 68, 2-éthyl-7-hydroxy-5-propyl-6-[(2'-(1-H-tétrazol-5-yl)biphényl-4-yl)méthyl]-1,2,4-triazolo [1,5-a] pyrimidine]
[1]; competitor 1E-5M, 10 µM
  % de déplacement du ligand marqué: 69%
[1]; competitor 1E-7M, 0.1 µM
  % de déplacement du ligand marqué: 59%

## CCCc1c(Cc2ccc(-c3ccccc3-c3nnn[nH]3)cc2)c(N)nc2ncnn12 [Exemple 77, 5-amino-7-propyl-6-[(2'-(1-H-tétrazol-5-yl)biphényl-4-yl)méthyl]-1,2,4-triazolo [1,5-a] pyrimidine]
[1]; competitor 1E-5M, 10 µM
  % de déplacement du ligand marqué: 63%
[1]; competitor 1E-7M, 0.1 µM
  % de déplacement du ligand marqué: 31%

## CCCc1nc2nncn2c(O)c1Cc1ccc(-c2ccccc2-c2nnn[nH]2)cc1 [Exemple 65, 5-hydroxy-7-propyl-6-[(2'-(1-H-tétrazol-5-yl)biphényl-4-yl)méthyl]-1,2,4 triazolo [4,3-a] pyrimidine]
[1]; competitor 1E-5M, 10 µM
  % de déplacement du ligand marqué: 63%
[1]; competitor 1E-7M, 0.1 µM
  % de déplacement du ligand marqué: 47%

## CCCc1nc2ncnn2c(O)c1Cc1ccc(-c2ccccc2-c2nnn[nH]2)cc1 [Exemple 62, 7-hydroxy-5-propyl-6-[(2'-(1-H-tétrazol-5-yl)biphényl-4-yl)méthyl]-1,2,4-triazolo [1,5-a]pyrimidine]
[1]; competitor 1E-5M, 10 µM
  % de déplacement du ligand marqué: 65%
[1]; competitor 1E-7M, 0.1 µM
  % de déplacement du ligand marqué: 52%

## CCCCc1c(Cc2ccc(-c3ccccc3-c3nnn[nH]3)cc2)c(O)nc2nc(C)nn12 [Exemple 82, 7-butyl-5-hydroxy-2-méthyl-6-[(2'(1-H-tétrazol-5-yl)biphényl-4-yl)méthyl]-1,2,4-triazolo [1,5-a] pyrimidine]
[1]; competitor 1E-5M, 10 µM
  % de déplacement du ligand marqué: 58%
[1]; competitor 1E-7M, 0.1 µM
  % de déplacement du ligand marqué: 11%

## 7-N,N-diethylamino-5-propyl-6-[(2'-(1-H-tétrazol-5-yl) biphényl-4-yl) méthyl]-1,2,4-triazolo [1,5-a] pyrimidine [Exemple 69]
[1]; competitor 1E-5M, 10 µM
  % de déplacement du ligand marqué: 69%
[1]; competitor 1E-7M, 0.1 µM
  % de déplacement du ligand marqué: 19%
[2]
  % inhibition de l'incorporation de 3H-thymidine induite par le PDGF: 100%

## CCCc1c(Cc2ccc(-c3sccc3-c3nnn[nH]3)cc2)c(O)nc2ncnn12 [Exemple 79, 5-hydroxy-7-propyl-6-[4-[3-(1-H-tétrazol-5-yl)-2-thiényl]benzyl]-1,2,4-triazolo [1,5-a] pyrimidine]
[1]; competitor 1E-5M, 10 µM
  % de déplacement du ligand marqué: 58%
[1]; competitor 1E-7M, 0.1 µM
  % de déplacement du ligand marqué: 26%
